Target: MAGL (Homo sapiens (Human), UniProt Q99685)
Experiment: 2-AG assay (MAGL inhibitory activity, hydrolysis of 2-arachidonoylglycerol followed by mass spectrometry)
Assay type: biochemical
Conditions: 50 pM MAGL protein, 15 min pre-incubation, 30 min incubation at RT
Description: Compounds of formula (II) were profiled for MAGL inhibitory activity by determining the enzymatic activity by following the hydrolysis of the natural substrate 2-arachidonoylglycerol (2-AG) resulting in arachidonic acid, which can be followed by mass spectrometry. This assay is hereinafter abbreviated “2-AG assay”.
Compounds of formula (II) were profiled for MAGL inhibitory activity by determining the enzymatic activity by following the hydrolysis of the natural substrate 2-arachidonoylglycerol (2-AG) resulting in arachidonic acid, which can be followed by mass spectrometry. This assay is hereinafter abbreviated “2-AG assay”. The 2-AG assay was carried out in 384 well polypropylene assay plates. Compound dilutions were made in 100% DMSO in a polypropylene plate in 3-fold dilution steps to give a final concentration range in the assay from 12.5 μM to 0.8 pM. Compound dilutions were added to MAGL protein in assay buffer (50 mM TRIS, 1 mM EDTA, 0.01% (v/v) Tween-20, 2.5% (v/v) DMSO). After shaking, the plate was incubated for 15 min at RT. To start the reaction, 2-arachidonoylglycerol in assay buffer was added. The final concentrations in the assay was 50 pM for MAGL protein and […] 2-arachidonoylglyerol. After shaking and 30 min incubation at RT, the reaction was quenched by the addition of two assay volumes of acetonitrile containing 4 μM of d8-arachidonic acid. The amount of arachidonic acid formed was traced by an online SPE system (Agilent Rapidfire) coupled to a triple quadrupole mass spectrometer. A C18 SPE cartridge (Agilent G9205A) was used in an acetonitrile/water liquid setup. The mass spectrometer was operated in negative electrospray mode following the mass transitions 303.1→259.1 for arachidonic acid and 311.1→267.0 for d8-arachidonic acid. The activity of the compounds was calculated based on the ratio of intensities [arachidonic acid/d8-arachidonic acid].

Chain of MAGL (Q99685 whole entry, species assumed): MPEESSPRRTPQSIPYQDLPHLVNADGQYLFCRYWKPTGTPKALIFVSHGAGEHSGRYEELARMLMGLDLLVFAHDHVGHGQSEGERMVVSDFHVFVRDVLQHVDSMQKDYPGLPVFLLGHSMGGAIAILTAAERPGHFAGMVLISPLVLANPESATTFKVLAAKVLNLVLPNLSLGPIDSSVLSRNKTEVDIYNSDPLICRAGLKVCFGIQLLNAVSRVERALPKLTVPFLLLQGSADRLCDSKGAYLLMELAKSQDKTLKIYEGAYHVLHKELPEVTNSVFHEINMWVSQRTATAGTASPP

Structure (SMILES) | IC50 [nM]
COc1cccc(C(=O)N2CCc3c(nn(C)c3CNC3(C(F)(F)F)CC3)[C@@H]2C)c1Cl [Example 11, (2-Chloro-3-methoxy-phenyl)-[(7S)-2,7-dimethyl-3-[[[1-(trifluoromethyl)cyclopropyl]amino]methyl]-5,7-dihydro-4H-pyrazolo[3,4-c]pyridin-6-yl]methanone] | 464
COc1cccc(C(=O)N2CCc3c(nn(C)c3-c3nnc(C(F)(F)F)o3)[C@@H]2C)c1Cl [Example 12, (2-Chloro-3-methoxy-phenyl)-[(7S)-2,7-dimethyl-3-[5-(trifluoromethyl)-1,3,4-oxadiazol-2-yl]-5,7-dihydro-4H-pyrazolo[3,4-c]pyridin-6-yl]methanone] | 390
COc1cccc(C(=O)N2CCc3c(nn(C)c3-c3cccc(O)n3)[C@@H]2C)c1Cl [Example 13, (2-Chloro-3-methoxy-phenyl)-[(7S)-3-(6-hydroxy-2-pyridyl)-2,7-dimethyl-5,7-dihydro-4H-pyrazolo[3,4-c]pyridin-6-yl]methanone] | 622
COc1cccc(C(=O)N2CCc3c(nn(C)c3-c3cc(Cl)cc(CC(N)=O)c3)[C@@H]2C)c1Cl [Example 14, 2-[3-Chloro-5-[(7S)-6-(2-chloro-3-methoxy-benzoyl)-2,7-dimethyl-5,7-dihydro-4H-pyrazolo[3,4-c]pyridin-3-yl]phenyl]acetamide] | 41
COc1cccc(C(=O)N2CCc3c(nn(C)c3-c3cc(Cl)cc(C4(C(N)=O)CC4)c3)[C@@H]2C)c1Cl [Example 16, 1-[3-Chloro-5-[(7S)-6-(2-chloro-3-methoxy-benzoyl)-2,7-dimethyl-5,7-dihydro-4H-pyrazolo[3,4-c]pyridin-3-yl]phenyl]cyclopropanecarboxamide] | 101
COc1cccc(C(=O)N2CCc3c(nn(C)c3-c3cc(F)cc(CC(N)=O)c3)[C@@H]2C)c1Cl [Example 17, 2-[3-[(7S)-6-(2-Chloro-3-methoxy-benzoyl)-2,7-dimethyl-5,7-dihydro-4H-pyrazolo[3,4-c]pyridin-3-yl]-5-fluoro-phenyl]acetamide] | 188
COc1cccc(C(=O)N2CCc3c(nn(C)c3-c3cncc(CC(N)=O)c3)[C@@H]2C)c1Cl [Example 18, 2-[5-[(7S)-6-(2-Chloro-3-methoxy-benzoyl)-2,7-dimethyl-5,7-dihydro-4H-pyrazolo[3,4-c]pyridin-3-yl]-3-pyridyl]acetamide] | 3080
CC1c2nn(C)c(-c3cc(F)cc(F)c3)c2CCN1C(=O)c1cc(F)cc(N2CC3(C2)CS(=O)(=O)C3)c1Cl (stereo not drawn) [Example 19, [2-Chloro-3-(2,2-dioxo-2λ^6-thia-6-azaspiro[3.3]heptan-6-yl)-5-fluoro-phenyl]-[3-(3,5-difluorophenyl)-2,7-dimethyl-5,7-dihydro-4H-pyrazolo[3,4-c]pyridine-6-yl]methanone] | 41
C[C@H]1c2nn(C)c(-c3cc(F)cc(F)c3)c2CCN1C(=O)c1cc(F)cc(N2CC3(C2)CS(=O)(=O)C3)c1Cl [Example 20, [2-Chloro-3-(2,2-dioxo-2λ^6-thia-6-azaspiro[3.3]heptan-6-yl)-5-fluoro-phenyl]-[(7S)-3-(3,5-difluorophenyl)-2,7-dimethyl-5,7-dihydro-4H-pyrazolo[3,4-c]pyridine-6-yl]methanone] | 27
C[C@@H]1c2nn(C)c(-c3cc(F)cc(F)c3)c2CCN1C(=O)c1cc(F)cc(N2CC3(C2)CS(=O)(=O)C3)c1Cl [Example 21, [2-Chloro-3-(2,2-dioxo-2λ^6-thia-6-azaspiro[3.3]heptan-6-yl)-5-fluoro-phenyl]-[(7R)-3-(3,5-difluorophenyl)-2,7-dimethyl-5,7-dihydro-4H-pyrazolo[3,4-c]pyridine-6-yl]methanone] | 1430
CC1c2nn(C)c(-c3cc(F)cc(F)c3)c2CCN1C(=O)c1cc(F)cc(N2CC(S(C)(=O)=O)C2)c1Cl (stereo not drawn) [Example 22, [2-Chloro-5-fluoro-3-(3-methylsulfonylazetidin-1-yl)phenyl]-[3-(3,5-difluorophenyl)-2,7-dimethyl-5,7-dihydro-4H-pyrazolo[3,4-c]pyridin-6-yl]methanone] | 76
C[C@H]1c2nn(C)c(-c3cc(F)cc(F)c3)c2CCN1C(=O)c1cc(F)cc(N2CC(S(C)(=O)=O)C2)c1Cl [Example 23, [2-Chloro-5-fluoro-3-(3-methylsulfonylazetidin-1-yl)phenyl]-[(7S)-3-(3,5-difluorophenyl)-2,7-dimethyl-5,7-dihydro-4H-pyrazolo[3,4-c]pyridin-6-yl]methanone] | 27
CC1c2nn(C)c(-c3cc(F)cc(F)c3)c2CCN1C(=O)c1ccccc1Cn1ccnn1 (stereo not drawn) [Example 24, [3-(3,5-Difluorophenyl)-2,7-dimethyl-5,7-dihydro-4H-pyrazolo[3,4-c]pyridin-6-yl]-[2-(triazol-1-ylmethyl)phenyl]methanone] | 1230
Cc1c(C(=O)N2CCc3c(nn(C)c3-c3cc(F)cc(F)c3)C2C)cccc1N1CCNC1=O (stereo not drawn) [Example 25, 1-[3-[3-(3,5-Difluorophenyl)-2,7-dimethyl-5,7-dihydro-4H-pyrazolo[3,4-c]pyridine-6-carbonyl]-2-methyl-phenyl]imidazolidin-2-one] | 892
CC1c2nn(C)c(-c3cc(F)cc(F)c3)c2CCN1C(=O)c1cc(-c2cccc(C#N)c2)ccc1F (stereo not drawn) [Example 26, 3-[3-[3-(3,5-Difluorophenyl)-2,7-dimethyl-5,7-dihydro-4H-pyrazolo[3,4-c]pyridine-6-carbonyl]-4-fluoro-phenyl]benzonitrile] | 84
CC1c2nn(C)c(-c3cc(F)cc(F)c3)c2CCN1C(=O)c1cc(F)cc(OCC2(C(F)(F)F)CC2)c1Cl (stereo not drawn) [Example 27, [2-Chloro-5-fluoro-3-[[1-(trifluoromethyl)cyclopropyl]methoxy]phenyl]-[3-(3,5-difluorophenyl)-2,7-dimethyl-5,7-dihydro-4H-pyrazolo[3,4-c]pyridin-6-yl]methanone] | 88
CC1c2nn(C)c(-c3cc(F)cc(F)c3)c2CCN1C(=O)c1cc(F)cc(C2=NOC(C)(C)C2)c1Cl (stereo not drawn) [Example 28, [2-Chloro-3-(5,5-dimethyl-4H-isoxazol-3-yl)-5-fluoro-phenyl]-[3-(3,5-difluorophenyl)-2,7-dimethyl-5,7-dihydro-4H-pyrazolo[3,4-c]pyridin-6-yl]methanone] | 385
C[C@H]1c2nn(C)c(-c3cc(F)cc(F)c3)c2CCN1C(=O)c1cc(F)cc(-c2ccc(=O)[nH]c2)c1Cl [Example 29, 5-[2-Chloro-3-[(7S)-3-(3,5-difluorophenyl)-2,7-dimethyl-5,7-dihydro-4H-pyrazolo[3,4-c]pyridine-6-carbonyl]-5-fluoro-phenyl]-1H-pyridin-2-one] | 1
C[C@@H]1c2nn(C)c(-c3cc(F)cc(F)c3)c2CCN1C(=O)c1cc(F)cc(-c2ccc(=O)[nH]c2)c1Cl [Example 30, 5-[2-Chloro-3-[(7R)-3-(3,5-difluorophenyl)-2,7-dimethyl-5,7-dihydro-4H-pyrazolo[3,4-c]pyridine-6-carbonyl]-5-fluoro-phenyl]-1H-pyridin-2-one] | 388
C[C@H]1c2nn(C)c(-c3cc(F)cc(F)c3)c2CCN1C(=O)c1cc(F)cc(-c2cc[nH]c(=O)c2)c1Cl [Example 31, 4-[2-Chloro-3-[(7S)-3-(3,5-difluorophenyl)-2,7-dimethyl-5,7-dihydro-4H-pyrazolo[3,4-c]pyridine-6-carbonyl]-5-fluoro-phenyl]-1H-pyridin-2-one] | 3
C[C@H]1c2nn(C)c(-c3cc(F)cc(F)c3)c2CCN1C(=O)c1ncn(-c2cccnc2O)n1 [Example 32, [(7S)-3-(3,5-Difluorophenyl)-2,7-dimethyl-5,7-dihydro-4H-pyrazolo[3,4-c]pyridin-6-yl]-[1-(2-hydroxy-3-pyridyl)-1,2,4-triazol-3-yl]methanone] | 232
C[C@H]1c2nn(C)c(-c3cc(F)cc(F)c3)c2CCN1C(=O)c1ncn(-c2ccc(O)nc2)n1 [Example 33, [(7S)-3-(3,5-Difluorophenyl)-2,7-dimethyl-5,7-dihydro-4H-pyrazolo[3,4-c]pyridin-6-yl]-[1-(6-hydroxy-3-pyridyl)-1,2,4-triazol-3-yl]methanone] | 163
C[C@H]1c2nn(C)c(-c3cc(F)cc(F)c3)c2CCN1C(=O)c1ncn(-c2cc(F)cnc2O)n1 [Example 34, [(7S)-3-(3,5-Difluorophenyl)-2,7-dimethyl-5,7-dihydro-4H-pyrazolo[3,4-c]pyridin-6-yl]-[1-(5-fluoro-2-hydroxy-3-pyridyl)-1,2,4-triazol-3-yl]methanone] | 149
C[C@H]1c2nn(C)c(-c3cc(F)cc(F)c3)c2CCN1C(=O)c1ncn(-c2cc(Cl)cnc2O)n1 [Example 35, [1-(5-Chloro-2-hydroxy-3-pyridyl)-1,2,4-triazol-3-yl]-[(7S)-3-(3,5-difluorophenyl)-2,7-dimethyl-5,7-dihydro-4H-pyrazolo[3,4-c]pyridin-6-yl]methanone] | 104

Source: US20250059185A1 (Hoffmann-La Roche Inc., priority 2021, published 2025)
